In patent US8946201B2, “Methods for inhibiting TGF-β” (Saint Louis University, priority 2007, dated 2015):

What was measured:
[1] = system: hair growth; assay: Hair growth assay in mice; format: in vivo, mice (C57BL/6); details: lotion containing 0.025% cholesterol, topical every two days
Procedure: FIG. 7. Hair growth promotion in mice topically treated with cholesterol. Mice (female, 6 weeks old) were subjected to hair removal by using hair remover lotion Nair®. The areas after hair removal were treated with the lotion containing vehicle only or 0.025% cholesterol on the first day and every other two days. Photographs were taken immediately after hair removal and prior to topical application with vehicle (a,b,c) or lotion containing cholesterol (d,e,f). Photographs were taken at days 0 (a,d), 10 (b,e) and 18 (c,f). The dark color indicates an early stage of hair growth.
Hair at the back of female mice (C57BL/6, 6-8 weeks old, were removed by using Nair® lotion hair remover. Lotions containing 0.025 and 0.00625% cholesterol and vehicle only were topically applied onto the area where the hair was removed. On the first day and every other day, photographs were taken prior to administration of the lotions. On day 18, the re-grown hair was shaved and weighed.
The hair growth cycle is coordinated with complex processes that are dependent on the interactions of epithelial and dermal components (follicle keratinocytes and dermal papilla cells). The hair growth cycle includes two major phases, growing phase (anagen) and regression phase (catagen). The length and size of hair are dependent on the anagen term in the hair cycle. […]

[2] = system: PAI-1 expression; assay: TGF-β1-induced PAI-1 expression, Northern blot, NRK cells; format: cell-based, rat; details: 50 μg/ml, TGF-β1 2 to 100 pM
Procedure: (A, B, C, D, E, F) Cells were treated with 50 μg/ml cholesterol (A, B, C, D) and 50 μg/ml LDL (D) at 37° C. for 1 hr or with 1 μM fluvastatin or lovastatin (E) or several concentrations of fluvastatin (F) at 37° C. for 16 hr and then further incubated with increasing concentrations (as indicated) of TGF-β1 (A, B, C, E) or 50 pM TGF-β1 (D,F) for 2 hr. Northern blot analysis of PAI-1 and G3PDH was performed. A representative of a total of three analyses is shown (a). The relative intensities of the transcripts were quantified with a PhosphoImager. The ratio of the relative intensities of PAI-1 and G3PDH transcripts in cells treated without TGF-β1 and cholesterol, LDL or statins on the blot was taken as 1 fold or 100% of PAI-1 expression. The quantitative data from three independent analyses is shown (b). […] (G) Mv1Lu cells stably expressing a luciferase reporter gene driven by the PAI-1 promoter (MLECs-clone 32) were treated with increasing concentrations (as indicated) of cholesterol at 37 EC for 1 hr (a) or with 1 μM lovastatin at 37° C. for 16 hr (b) and then further incubated with 50 pM TGF-β for 7 hr. The luciferase activity in cells treated without cholesterol was taken as 100% (a). […] (H) Cells were incubated with 0.0625 and 0.125 pM TGF-β1 in the presence of increasing concentrations of cholesterol, as indicated. […] The experiments were carried out in triplicate.

[3] = system: TβR-I and TβR-II; assay: Western blot of TβR-I and TβR-II protein levels, Mv1Lu cells; format: cell-based, mink; details: 50 μg/ml
Procedure: Cells grown to near confluence on 12-well cluster dishes were treated with cholesterol or LDL in serum-free DMEM (vol.=0.5 ml/well) at 37° C. for 1 hr. The treated cells were further incubated with 50 or 100 pM TGF-β1 at 37° C. for 30 min (for determining Smad2 phosphorylation) or for 2 hr (for determining TβR-II). Treated cells were lysed and cell lysates were analyzed by 7.5% SDS-PAGE and Western blot analysis using anti-Smad2, anti-P-Smad2, anti-caveolin-1, anti-TβR-I (alk5) or anti-TβR-II antibodies as described previously (30). The antigens on the blots were visualized by using horseradish peroxidase-conjugated anti-rabbit IgG antibody and the ECL system as described (30).
To determine if cholesterol suppresses TGF-β responsiveness by decreasing the ratio of TGF-β1 binding to TβR-II and TβR-I, we first determined the time course of the effect of cholesterol treatment on the ratio of ^125I-TGF-β1 binding to TβR-II and TβR-I in Mv1Lu cells. These cells were treated with 50 μg/ml cholesterol at 37° C. for several time periods. ^125I-TGF-β1 binding to TGF-β receptors was then determined by affinity labeling using the bifunctional cross-linking agent DSS (disuccinimidyl suberate) followed by 7.5% SDS-PAGE and autoradiography or quantified with a PhosphoImager. […] We then performed analysis of the effect of cholesterol treatment on TGF-β1 binding to TβR-I and TβR-II in several cell types. Mv1Lu, BAEC, and NRK cells were treated for 1 hr with increasing concentrations of cholesterol in the presence and absence of 0.2% β-cyclodextrin (β-CD, which forms water-soluble complexes with cholesterol) at 37° C. The binding of TGF-β1 to TβR-I and TβR-II in these cells was then determined by ^125I-TGF-β1 affinity labeling at 0° C.

[4] = system: Smad2 nuclear translocation; assay: Smad2 nuclear translocation, indirect immunofluorescent staining, Mv1Lu cells; format: cell-based, mink; details: 50 μg/ml 1 hr, then 50 pM TGF-β1 30 min
Procedure: Cells were treated with increasing concentrations of cholesterol, as indicated (A, B, C), 50 μg protein/ml LDL (D), 5 μg protein/ml VLDL (D) or 50 μg/ml cholesterol (E) at 37° C. for 1 hr and then further incubated with 50 pM TGF-β1 for 30 min. […] Smad2 nuclear translocation was analyzed by indirect immunofluorescent staining using P-Smad2 antibody and rhodamine-labeled 2nd antibody (E). Rhodamine fluorescence represents P-Smad2 staining (a,b,c) whereas the nuclei were stained by DAPI staining (d,e,f).
For indirect immunofluorescent staining, cells grown on cover glass were fixed in cold 100% methanol and then incubated with antibody to P-Smad2 overnight. The antigen was visualized by incubation with Rhodamine-conjugated goat antibody to rabbit IgG followed by immunofluorescence microscopy.
To test this possibility, we determined the effect of cholesterol treatment on Smad2 phosphorylation and nuclear translocation, both of which are key signaling events, leading to TGF-β responsiveness. […] To determine the effect of cholesterol on Smad2 nuclear translocation, Mv1Lu cells were treated with 50 μg/ml cholesterol at 37° C. for 1 hr and then further incubated with and without 50 pM TGF-β1 at 37° C. for 30 min. These cells were subjected to immunofluorescent staining using anti-P-Smad2 antibody and nuclear DAPI (4′,6-diamidine-2-phenylindole dihydrochloride) staining.

For `CC(C)CCC[C@@H](C)[C@H]1CC[C@H]2[C@@H]3CC=C4C[C@@H](O)CC[C@]4(C)[C@H]3CC[C@]12C` [cholesterol], the hair growth ([1]; day 10) was “the hair started to grow”, the hair growth ([1]; day 18) was “fully grown hair” and the “suppression of TGF-β1-stimulated PAI-1 expression” value [2] was 60-65%. For the same compound, the “effect on the protein levels of TβR-I and TβR-II” value ([3]; data not shown) was “did not affect”, the “effect on the total amount of TβR-II protein” value ([3]; cholesterol alone) was “did not affect” and the “effect on Smad2 nuclear translocation” value [4] was “suppressed”.
